Measurements: patent publication US12622948B2 (SUN PHARMACEUTICAL INDUSTRIES LIMITED, priority 2020, dated 2026)
Marks after values point to notes of the source that are not given here. Starred links: 1 amine or outer side, 2 acyl side, 3 side chain; linkers in the order of their positions; H or OH if unused. Non-standard residues stand in square brackets, D forms with d. Residues, ends and D or L forms follow the SMILES beside them. Groups on a side chain read outwards from the residue. No end group written: not given here. *: point of attachment. C20 diacid = O=C(O)CCCCCCCCCCCCCCCCCCC(=O)*; γGlu = O=C(O)[C@H](CCC(=O)[*:2])N[*:1]; Moiety A = not defined here; Nva = CCC[C@H](N)C(=O)O; AEEA = NCCOCCOCC(=O)O; Aib = CC(C)(N)C(=O)O

System: type 2 diabetic mouse (db/db) model
Test: Efficacy study in db/db mice at 10 nM/kg dose (blood glucose, body weight, food intake)
Assay type: in vivo
Settings: for Cumulative food Intake (g) 0-48 hr. vs. Baseline, Mean / Cumulative food Intake (g) 0-96 hr. vs. Baseline, Mean / Delta Blood Glucose (mM) Mean / Body Wt. Change (%) 48 hr. vs. Baseline, Mean / Body Wt. Change (%) 96 hr. vs. Baseline, Mean: 10 nM/kg s.c. single dose; for blood glucose reduction / body weight reduction / reduction in food consumption: db/db mice, 10 nM/kg s.c., vs diabetic control
Protocol: The effect of compounds of present invention on blood glucose, food intake and body weight was studied in mice. This study was performed in a type 2 diabetic mouse (db/db) model. […] Baseline blood glucose was measured from all the animals. […] All the animals were administered with test items subcutaneously. […] Delta blood glucose (mM) was calculated.

[1] = Study 2, db/db mice, 0 hr (baseline)
[2] = Study 4, db/db mice, 0 hr (baseline)

| Compound | Cumulative food Intake (g) 0-48 hr. vs. Baseline, Mean (Study 2, db/db mice) | Cumulative food Intake (g) 0-96 hr. vs. Baseline, Mean (Study 2, db/db mice) | Delta Blood Glucose (mM) Mean [1] [mM] | Delta Blood Glucose (mM) Mean (Study 2, db/db mice, 4 hr) | Delta Blood Glucose (mM) Mean (Study 2, db/db mice, 8 hr) | Delta Blood Glucose (mM) Mean (Study 2, db/db mice, 12 hr) | Delta Blood Glucose (mM) Mean (Study 2, db/db mice, 24 hr) | Body Wt. Change (%) 48 hr. vs. Baseline, Mean (Study 2, db/db mice, 48 hr) | Delta Blood Glucose (mM) Mean (Study 2, db/db mice, 48 hr) | Delta Blood Glucose (mM) Mean (Study 2, db/db mice, 72 hr) | Body Wt. Change (%) 96 hr. vs. Baseline, Mean (Study 2, db/db mice, 96 hr) | Delta Blood Glucose (mM) Mean (Study 2, db/db mice, 96 hr) [mM] | blood glucose reduction | body weight reduction | reduction in food consumption | Cumulative food Intake (g) 0-48 hr. vs. Baseline, Mean (Study 4, db/db mice) | Cumulative food Intake (g) 0-96 hr. vs. Baseline, Mean (Study 4, db/db mice) | Delta Blood Glucose (mM) Mean [2] [mM] | Delta Blood Glucose (mM) Mean (Study 4, db/db mice, 4 hr) | Delta Blood Glucose (mM) Mean (Study 4, db/db mice, 8 hr) | further results |
| --- | --- | --- | --- | --- | --- | --- | --- | --- | --- | --- | --- | --- | --- | --- | --- | --- | --- | --- | --- | --- | --- |
| Compound 8: SEQ ID 08 polypeptide, C-terminal Lys40 acylated with Moiety A (Y[Aib]EGTFTSDYSI[Nva]LEKIAAQEFVNWLLAGGPSSGAPPPSK(Moiety A)-NH2; reading uncertain) | – | – | – | – | – | – | – | – | – | – | – | – | – | – | – | – | – | – | – | – | Cumulative food Intake (g) 0-48 hr. vs. Baseline, Mean (Study 3, db/db mice): 4.0*** g; Cumulative food Intake (g) 0-96 hr. vs. Baseline, Mean (Study 3, db/db mice): 13.9*** g; Delta Blood Glucose (mM) Mean (Study 3, db/db mice, 0 hr (baseline)): 0 mM; Delta Blood Glucose (mM) Mean (Study 3, db/db mice, 4 hr): −13.6*** mM; Delta Blood Glucose (mM) Mean (Study 3, db/db mice, 8 hr): −13.6*** mM; Delta Blood Glucose (mM) Mean (Study 3, db/db mice, 12 hr): −13.6*** mM; Delta Blood Glucose (mM) Mean (Study 3, db/db mice, 24 hr): −8.5*** mM; Body Wt. Change (%) 48 hr. vs. Baseline, Mean (Study 3, db/db mice, 48 hr): −3.1*** %; Delta Blood Glucose (mM) Mean (Study 3, db/db mice, 48 hr): −5.6* mM; Delta Blood Glucose (mM) Mean (Study 3, db/db mice, 72 hr): -1.8 mM; Body Wt. Change (%) 96 hr. vs. Baseline, Mean (Study 3, db/db mice, 96 hr): −2.8*** %; Delta Blood Glucose (mM) Mean (Study 3, db/db mice, 96 hr): -0.6 mM |
| CC[C@H](C)[C@H](NC(=O)[C@H](CCCCN)NC(=O)[C@H](CC(=O)O)NC(=O)[C@H](CC(C)C)NC(=O)[C@H](CC(C)C)NC(=O)[C@@H](NC(=O)[C@H](CO)NC(=O)[C@H](Cc1ccc(O)cc1)NC(=O)[C@H](CC(=O)O)NC(=O)[C@H](CO)NC(=O)[C@@H](NC(=O)[C@H](Cc1ccccc1)NC(=O)[C@@H](NC(=O)CNC(=O)[C@H](CCC(=O)O)NC(=O)C(C)(C)NC(=O)[C@@H](N)Cc1ccc(O)cc1)[C@@H](C)O)[C@@H](C)O)[C@@H](C)CC)C(=O)N[C@@H](C)C(=O)N[C@@H](CCC(N)=O)C(=O)N[C@@H](CCCCNC(=O)COCCOCCNC(=O)C(C)(C)NC(=O)CC[C@H](NC(=O)CCCCCCCCCCCCCCCCCCC(=O)O)C(=O)O)C(=O)N[C@@H](C)C(=O)N[C@@H](Cc1ccccc1)C(=O)N[C@H](C(=O)N[C@@H](CCC(N)=O)C(=O)N[C@@H](Cc1c[nH]c2ccccc12)C(=O)N[C@@H](CC(C)C)C(=O)N[C@H](C(=O)N[C@@H](C)C(=O)NCC(=O)NCC(=O)N1CCC[C@H]1C(=O)N[C@@H](CO)C(=O)N[C@@H](CO)C(=O)NCC(=O)N[C@@H](C)C(=O)N1CCC[C@H]1C(=O)N1CCC[C@H]1C(=O)N1CCC[C@H]1C(=O)N[C@@H](CO)C(N)=O)[C@@H](C)CC)C(C)C [Compound 3] (H-Y[Aib]EGTFTSDYSILLDKIAQK([AEEA-Aib-γGlu-C20 diacid])AFVQWLIAGGPSSGAPPPS-NH2) | 6.0*** g | 16.0*** g | 0 | −10.3*** mM | −13.9*** mM | −15.8*** mM | −10.9*** mM | −5.6*** % | −6.6*** mM | 0.1 mM | −4.9*** % | -0.7 | statistically significant blood glucose reduction upto 96 hr post treatment | statistically significant reduction in food intake and body weight | statistically significant reduction in food intake | – | – | – | – | – | – |
| CCC[C@H](NC(=O)[C@@H](NC(=O)[C@H](CO)NC(=O)[C@H](Cc1ccc(O)cc1)NC(=O)[C@H](CC(=O)O)NC(=O)[C@H](CO)NC(=O)[C@@H](NC(=O)[C@H](Cc1ccccc1)NC(=O)[C@@H](NC(=O)CNC(=O)[C@H](CCC(=O)O)NC(=O)C(C)(C)NC(=O)[C@@H](N)Cc1ccc(O)cc1)[C@@H](C)O)[C@@H](C)O)[C@@H](C)CC)C(=O)N[C@@H](CC(C)C)C(=O)N[C@@H](CC(=O)O)C(=O)N[C@@H](CCCCN)C(=O)N[C@H](C(=O)N[C@@H](C)C(=O)N[C@@H](CCC(N)=O)C(=O)N[C@@H](CCCCNC(=O)COCCOCCNC(=O)COCCOCCNC(=O)CC[C@H](NC(=O)CCCCCCCCCCCCCCCCCCC(=O)O)C(=O)O)C(=O)N[C@@H](C)C(=O)N[C@@H](Cc1ccccc1)C(=O)N[C@H](C(=O)N[C@@H](CCC(N)=O)C(=O)N[C@@H](Cc1c[nH]c2ccccc12)C(=O)N[C@@H](CC(C)C)C(=O)N[C@H](C(=O)N[C@@H](C)C(=O)NCC(=O)NCC(=O)N1CCC[C@H]1C(=O)N[C@@H](CO)C(=O)N[C@@H](CO)C(=O)NCC(=O)N[C@@H](C)C(=O)N1CCC[C@H]1C(=O)N1CCC[C@H]1C(=O)N1CCC[C@H]1C(=O)N[C@@H](CO)C(N)=O)[C@@H](C)CC)C(C)C)[C@@H](C)CC [Compound 6] | 4.2*** g | 16.0*** g | 0 | −15.6*** mM | −15.9*** mM | −16.3*** mM | −11.8*** mM | −5.5*** % | −9.5*** mM | −2.6* mM | −2.2** % | -1.6 | statistically significant blood glucose reduction upto 96 hr post treatment | statistically significant reduction in food intake and body weight | statistically significant reduction in food intake | – | – | – | – | – | – |
| Compound 12: SEQ ID 12 polypeptide, Lys20 acylated with Moiety A (Y[Aib]EGTFTSDYSIILDKIAQK(Moiety A)AFVQWLIAGGPSSGAPPPS-NH2; reading uncertain) | – | – | – | – | – | – | – | – | – | – | – | – | – | – | – | 10.2* g | 26.0 g | 0 | −14.6*** mM | −14.8*** mM | Delta Blood Glucose (mM) Mean (Study 4, db/db mice, 12 hr): −14.9*** mM; Delta Blood Glucose (mM) Mean (Study 4, db/db mice, 24 hr): −4.8** mM; Body Wt. Change (%) 48 hr. vs. Baseline, Mean (Study 4, db/db mice, 48 hr): −3.0*** %; Delta Blood Glucose (mM) Mean (Study 4, db/db mice, 48 hr): 2.5 mM; Delta Blood Glucose (mM) Mean (Study 4, db/db mice, 72 hr): 3.9 mM; Body Wt. Change (%) 96 hr. vs. Baseline, Mean (Study 4, db/db mice, 96 hr): −0.4%; Delta Blood Glucose (mM) Mean (Study 4, db/db mice, 96 hr): 6.8 mM |
| CC[C@H](NC(=O)[C@@H](NC(=O)[C@H](CO)NC(=O)[C@H](Cc1ccc(O)cc1)NC(=O)[C@H](CC(=O)O)NC(=O)[C@H](CO)NC(=O)[C@@H](NC(=O)[C@H](Cc1ccccc1)NC(=O)[C@@H](NC(=O)CNC(=O)[C@H](CCC(=O)O)NC(=O)C(C)(C)NC(=O)[C@@H](N)Cc1ccc(O)cc1)[C@@H](C)O)[C@@H](C)O)[C@@H](C)CC)C(=O)N[C@@H](CC(C)C)C(=O)N[C@@H](CC(=O)O)C(=O)N[C@@H](CCCCN)C(=O)N[C@H](C(=O)N[C@@H](C)C(=O)N[C@@H](CCC(N)=O)C(=O)N[C@@H](CCCCNC(=O)COCCOCCNC(=O)C(C)(C)NC(=O)CC[C@H](NC(=O)CCCCCCCCCCCCCCCCCCC(=O)O)C(=O)O)C(=O)N[C@@H](C)C(=O)N[C@@H](Cc1ccccc1)C(=O)N[C@H](C(=O)N[C@@H](CCC(N)=O)C(=O)N[C@@H](Cc1c[nH]c2ccccc12)C(=O)N[C@@H](CC(C)C)C(=O)N[C@H](C(=O)N[C@@H](C)C(=O)NCC(=O)NCC(=O)N1CCC[C@H]1C(=O)N[C@@H](CO)C(=O)N[C@@H](CO)C(=O)NCC(=O)N[C@@H](C)C(=O)N1CCC[C@H]1C(=O)N1CCC[C@H]1C(=O)N1CCC[C@H]1C(=O)N[C@@H](CO)C(N)=O)[C@@H](C)CC)C(C)C)[C@@H](C)CC [Compound 10] | – | – | – | – | – | – | – | – | – | – | – | – | – | – | – | 8.2*** g | 20.5** g | 0 | −12.1*** mM | −13.6*** mM | Delta Blood Glucose (mM) Mean (Study 4, db/db mice, 12 hr): −14.7*** mM; Delta Blood Glucose (mM) Mean (Study 4, db/db mice, 24 hr): −15.6*** mM; Body Wt. Change (%) 48 hr. vs. Baseline, Mean (Study 4, db/db mice, 48 hr): −4.5*** %; Delta Blood Glucose (mM) Mean (Study 4, db/db mice, 48 hr): −4.0** mM; Delta Blood Glucose (mM) Mean (Study 4, db/db mice, 72 hr): 2.3 mM; Body Wt. Change (%) 96 hr. vs. Baseline, Mean (Study 4, db/db mice, 96 hr): −3.1*** %; Delta Blood Glucose (mM) Mean (Study 4, db/db mice, 96 hr): 1.7 mM |
